Common to all, as to assay: DTP human tumour cell line panel, 48 h
Assay [1] relates to ACHN.
Assay [2] relates to CCRF-CEM.
Assay [3] deals with DLD-1.
Assay [4] deals with HOP-62.
For assay [5], the system named is KM-20L2.
In assay [6] the test system is LOX IMVI.
Assay [7] concerns M14.
In assay [8] the test system is Malme-3M.
In assay [9] the test system is OVCAR-3.
The subject of assay [10] is RPMI-8226.
Assay [11] concerns SF-295.
Assay [12] deals with SN12C.
Assay [13] deals with SNB-19.
In assay [14] the test system is SR.
For assay [15], the system named is UACC-62.
Assay [16] concerns DU-145.
Assay [17] has as its system HOP-92.
For assay [18], the system named is NCI-H226.

Each structure is given as a SMILES string.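 Method: 48-hour compound exposure of cells in 96-well plates, five concentrations, linear interpolation of endpoints. GI50 is the concentration that inhibits growth by half.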 Calls of active or inactive are those of the source. Cut-off read from the data, not from the text of the source: active = GI50 up to about 1.1 µM and inactive = higher. A value given as a limit tells only on which side of the number the result lay.

Broadly, the GI50 is the concentration giving 50% growth inhibition. As for `CC(C)(C)C1=Nc2c(Br)cc(C(C)(C)C)cc2C(C(F)(F)F)(C(F)(F)F)O1`, the GI50 in assay [1] is 45 µM (inactive); in [2], 32.7 µM (inactive); in assay [3], > 100 µM (inactive); in [4], > 100 µM (inactive); in assay [5], > 100 µM (inactive); in assay [6] it was 16.2 µM (inactive). The GI50 in assay [7] was > 100 µM (inactive); in assay [8] it was > 100 µM (inactive); in assay [9], 17 µM (inactive); in assay [10], 25.3 µM (inactive); in assay [11], 54.8 µM (inactive); in assay [12] it was 38.4 µM (inactive). In addition, the values for the GI50 in assay [13], in assay [14] and in assay [15] were 70.8 µM (inactive), 54 µM (inactive) and > 100 µM (inactive), respectively.
`O=C1C(=Cc2c(O)cc(O)cc2O)C(=O)c2ccccc21`: the GI50 in assay [1] is > 40.8 µM (inactive); in assay [2] it was 29.9 µM (inactive); in assay [3] it was > 40.6 µM (inactive); in assay [16], 19.1 µM (inactive); in assay [4], > 100 µM (inactive); in assay [17], > 38.5 µM (inactive). Besides, the GI50 is > 43.5 µM (inactive) in [5]; 15.4 µM (inactive) in [6]; > 43.3 µM (inactive) in [7]; > 44.6 µM (inactive) in [8]; 36 µM (inactive) in assay [18]; > 40.6 µM (inactive) in assay [9]. Besides, the GI50 in assay [10] was 29 µM (inactive); in assay [11], > 41.9 µM (inactive); in assay [12], 19.5 µM (inactive); in assay [13] it was > 42.6 µM (inactive); in [14], 13.6 µM (inactive); in [15] it was > 40.5 µM (inactive).
`COc1ccc(NC(=O)CC/C(CC(=O)C(C)(C)C)=N\NC(=O)C(N)=O)cc1`: the GI50 in assay [1], in [2], in assay [3], in [4], in assay [17] and in assay [5] was > 100 µM (inactive) in each case. Further, the GI50 in assay [6], in [7], in assay [8], in [18], in assay [9] and in assay [11] was > 100 µM (inactive) throughout. Also, the GI50 in [12], in assay [13], in assay [14] and in assay [15] was > 100 µM (inactive) each time.
Consider `COC(=O)C1CCCC2(C1)OCCO2` (stereo not drawn), for which the GI50 in assay [1], in assay [2], in assay [3], in assay [4], in [17] and in [5] was > 100 µM (inactive) throughout. Further, the GI50 in assay [6], in assay [7], in assay [8], in assay [18], in [9] and in [10] was > 100 µM (inactive) each time. For the same compound, the GI50 in [11], in assay [12], in assay [13], in assay [14] and in assay [15] was > 100 µM (inactive) throughout.
Take `Cc1cc2c(=O)c(C)n[nH]c2c(C#N)c1C`: the GI50 is > 100 µM (inactive) in [1]; > 100 µM (inactive) in [2]; > 100 µM (inactive) in [3]; > 100 µM (inactive) in assay [4]; 29.4 µM (inactive) in assay [17]; > 100 µM (inactive) in assay [5]. The GI50 in assay [6], in assay [8], in assay [18], in assay [9], in [10] and in [11] was > 100 µM (inactive) each time. The GI50 in assay [12], in [13], in assay [14] and in [15] was > 100 µM (inactive) in each case.
Regarding `CCOC(=O)C1([Se]c2ccccc2)CCCC1=O` (stereo not drawn), the GI50 in assay [1] was 20.3 µM (inactive); in assay [2], 15.2 µM (inactive); in assay [3], 16.6 µM (inactive); in assay [4], 96.8 µM (inactive); in assay [17], 25.5 µM (inactive); in [5] it was 36.6 µM (inactive). The GI50 in assay [6] was 13.1 µM (inactive); in assay [7], 21.3 µM (inactive); in [8] it was 32.6 µM (inactive); in [18] it was 29 µM (inactive); in assay [9] it was 26.6 µM (inactive); in assay [10], 23.3 µM (inactive). Further, the GI50 was 31.8 µM (inactive) in assay [11]; 15 µM (inactive) in [12]; 44.1 µM (inactive) in assay [13]; 14 µM (inactive) in assay [14]; 14.7 µM (inactive) in assay [15].
With `COC1CC(O)C(OC(=O)c2ccccc2)C(C)O1` (stereo not drawn), the GI50 in assay [2] is > 100 µM (inactive); in assay [3], > 10 µM (inactive); in assay [4], > 100 µM (inactive); in assay [17], > 100 µM (inactive); in [5], > 100 µM (inactive); in assay [6], > 100 µM (inactive). Moreover, the GI50 in assay [7], in assay [8], in assay [18], in [9], in assay [10] and in assay [11] was > 100 µM (inactive) in each case. The GI50 in [12], in assay [13], in assay [14] and in assay [15] was > 100 µM (inactive) each time.
For the compound `COc1ccc(-c2cc(=O)c3cc(C)c(C)c(C(=O)O)c3o2)cc1`, the GI50 in assay [1] is 17.9 µM (inactive); in assay [2] it was > 100 µM (inactive); in assay [3], > 100 µM (inactive); in assay [4] it was > 100 µM (inactive); in assay [17], < 0.01 µM (active); in assay [5], > 100 µM (inactive). The GI50 in assay [9], in assay [10], in [11], in assay [12], in [13] and in assay [14] was > 100 µM (inactive) each time. The GI50 in assay [15] was 13.6 µM (inactive).
With `CN1CCc2cc3c4cc2C1Cc1ccc(cc1)Oc1cc(ccc1O)CC1c2c(cc(O)c(c2O4)O3)CCN1C` (stereo not drawn), the GI50 in assay [1] was 7.52 µM (inactive); in assay [2], 2.52 µM (inactive); in assay [3], 3.3 µM (inactive); in [4], 5.4 µM (inactive); in assay [17], 2.52 µM (inactive); in [5], 2.9 µM (inactive). Also, the GI50 in assay [6] is 1.66 µM (inactive); in [7] it was 1.62 µM (inactive); in [8], 1.81 µM (inactive); in assay [18], 2.07 µM (inactive); in [9], 3.94 µM (inactive); in assay [10], 1.64 µM (inactive). Also, the GI50 in [11] is 1.56 µM (inactive); in [12], 3.63 µM (inactive); in assay [13], 2.83 µM (inactive); in assay [14], 3.92 µM (inactive); in assay [15] it was 2.02 µM (inactive).
`O=C(NC1CC1)c1c(O)[nH]c(=S)[nH]c1=O`: the GI50 in assay [1], in [2], in [3], in assay [4], in assay [17] and in [5] was > 100 µM (inactive) throughout. For the same compound, the GI50 in [6], in assay [7], in assay [8], in assay [18], in assay [9] and in assay [10] was > 100 µM (inactive) throughout. Further, the GI50 in assay [11], in assay [12], in [13], in assay [14] and in assay [15] was > 100 µM (inactive) each time.
Turning to `C=C1C(=O)C23CC1CCC2C12CO[C@@H]4OCC(C)(CC[C@@H]1OC3=O)C42` (stereo partly drawn), the GI50 in assay [1] is 3.14 µM (inactive); in assay [2], 2.38 µM (inactive); in assay [3], 3.52 µM (inactive); in assay [4] it was 27 µM (inactive); in assay [17] it was 2.64 µM (inactive); in assay [5] it was 5.38 µM (inactive). In addition, the GI50 in assay [7] was 1.31 µM (inactive); in assay [8], 2.3 µM (inactive); in assay [18], 20.7 µM (inactive); in [9], 6.49 µM (inactive); in [10] it was 1.57 µM (inactive); in assay [11], 16.9 µM (inactive). The GI50 was 8.32 µM (inactive) in [12], 8 µM (inactive) in assay [13], 1.35 µM (inactive) in assay [14] and 11.7 µM (inactive) in assay [15].
Take `O=C(N/N=C/c1cccc(F)c1)c1ccncc1`: the GI50 in [1], in [2], in assay [3], in assay [4], in assay [17] and in assay [5] was > 100 µM (inactive) each time. For the same compound, the GI50 was > 100 µM (inactive) in assay [6]; > 100 µM (inactive) in assay [7]; > 100 µM (inactive) in assay [8]; 0.056 µM (active) in [18]; > 100 µM (inactive) in assay [10]; > 100 µM (inactive) in assay [11]. Also, the GI50 in assay [12], in assay [13] and in assay [14] was > 100 µM (inactive) each time.
